{
  "source": "patent US9546164B2",
  "about": "(GENENTECH, INC., priority 2013, dated 2017)",
  "target": "hNav1.7 (Homo sapiens (Human), UniProt Q15858)",
  "sequence (Q15858 other isoform, or with tags, fused parts or gaps)": "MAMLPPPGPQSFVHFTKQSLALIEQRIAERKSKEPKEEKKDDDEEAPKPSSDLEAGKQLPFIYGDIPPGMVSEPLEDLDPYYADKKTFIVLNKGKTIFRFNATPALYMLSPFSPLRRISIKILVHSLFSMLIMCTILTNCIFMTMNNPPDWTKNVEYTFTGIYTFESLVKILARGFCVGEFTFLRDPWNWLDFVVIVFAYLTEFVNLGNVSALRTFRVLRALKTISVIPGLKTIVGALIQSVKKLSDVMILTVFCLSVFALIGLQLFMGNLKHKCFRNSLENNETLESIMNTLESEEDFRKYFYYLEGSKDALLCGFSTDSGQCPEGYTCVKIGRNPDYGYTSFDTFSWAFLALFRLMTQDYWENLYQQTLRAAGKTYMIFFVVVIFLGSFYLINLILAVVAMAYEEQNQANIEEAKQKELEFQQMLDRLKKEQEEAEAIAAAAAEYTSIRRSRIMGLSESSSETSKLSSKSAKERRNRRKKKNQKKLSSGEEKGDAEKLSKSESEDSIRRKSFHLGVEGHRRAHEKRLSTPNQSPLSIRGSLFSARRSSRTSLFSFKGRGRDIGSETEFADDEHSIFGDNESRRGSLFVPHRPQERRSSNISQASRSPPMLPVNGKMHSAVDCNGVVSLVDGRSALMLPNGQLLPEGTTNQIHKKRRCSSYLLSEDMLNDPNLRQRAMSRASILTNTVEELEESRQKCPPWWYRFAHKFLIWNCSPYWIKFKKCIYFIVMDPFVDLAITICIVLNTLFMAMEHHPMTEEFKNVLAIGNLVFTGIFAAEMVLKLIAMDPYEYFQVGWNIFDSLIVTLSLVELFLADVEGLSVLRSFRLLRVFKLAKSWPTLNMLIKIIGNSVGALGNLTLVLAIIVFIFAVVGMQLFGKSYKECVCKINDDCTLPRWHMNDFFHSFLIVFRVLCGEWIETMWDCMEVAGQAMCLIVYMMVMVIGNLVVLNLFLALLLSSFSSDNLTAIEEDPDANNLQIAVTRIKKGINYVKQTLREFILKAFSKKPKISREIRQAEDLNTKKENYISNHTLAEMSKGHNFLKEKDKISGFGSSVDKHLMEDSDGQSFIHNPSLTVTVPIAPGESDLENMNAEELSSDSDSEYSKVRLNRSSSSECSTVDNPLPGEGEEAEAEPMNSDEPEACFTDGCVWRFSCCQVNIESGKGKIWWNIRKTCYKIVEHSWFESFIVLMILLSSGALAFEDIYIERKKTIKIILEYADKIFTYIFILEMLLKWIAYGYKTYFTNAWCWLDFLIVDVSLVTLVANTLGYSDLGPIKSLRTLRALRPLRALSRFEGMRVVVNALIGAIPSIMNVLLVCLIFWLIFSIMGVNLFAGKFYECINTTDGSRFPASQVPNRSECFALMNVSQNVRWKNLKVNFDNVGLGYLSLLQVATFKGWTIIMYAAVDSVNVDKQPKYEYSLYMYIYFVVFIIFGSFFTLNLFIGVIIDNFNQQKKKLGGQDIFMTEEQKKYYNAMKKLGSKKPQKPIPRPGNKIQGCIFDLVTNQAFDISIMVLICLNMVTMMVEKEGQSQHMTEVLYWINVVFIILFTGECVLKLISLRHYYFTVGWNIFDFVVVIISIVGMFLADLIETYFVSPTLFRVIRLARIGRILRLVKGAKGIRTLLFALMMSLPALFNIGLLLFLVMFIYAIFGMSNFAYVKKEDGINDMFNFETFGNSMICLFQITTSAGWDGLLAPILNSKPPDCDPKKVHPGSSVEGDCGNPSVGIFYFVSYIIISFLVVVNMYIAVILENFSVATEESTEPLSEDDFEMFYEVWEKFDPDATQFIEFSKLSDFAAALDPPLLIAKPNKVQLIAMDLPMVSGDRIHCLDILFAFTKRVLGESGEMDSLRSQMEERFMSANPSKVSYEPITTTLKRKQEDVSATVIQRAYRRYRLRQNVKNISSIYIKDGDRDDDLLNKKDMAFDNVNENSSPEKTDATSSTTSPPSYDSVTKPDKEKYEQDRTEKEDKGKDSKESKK",
  "sequence (Q07699 19-218 partner)": "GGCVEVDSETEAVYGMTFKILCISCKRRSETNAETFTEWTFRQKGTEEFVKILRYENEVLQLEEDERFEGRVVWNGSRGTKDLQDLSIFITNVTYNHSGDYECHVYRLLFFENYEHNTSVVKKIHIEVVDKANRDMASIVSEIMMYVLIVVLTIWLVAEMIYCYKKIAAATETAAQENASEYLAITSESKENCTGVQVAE",
  "test": "Tritiated sulfonamide competitive binding to membranes from cells expressing hNav1.7 and the β1 subunit;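 also: Filter-bound radioactivity counted by liquid scintillation, nonspecific binding defined with excess unlabelled ligand, IC50 fitted to percent inhibition of specific binding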",
  "settings": "read-out: Ligand Binding Assay; 100 pM [3H]compound, membranes with hNav1.7 and β1 subunit, 18 h, room temperature",
  "note": "Structures can show the parent of a compound that is named as a salt.",
  "data": [
    {"smiles": "CS(=O)(=O)NC(=O)c1cc(C2CC2)c(O[C@@H]2CCCN(Cc3ccc(-c4ccccc4)cc3)C2)cc1F", "note": "[Example 426, (R)-4-((1-([1,1′-biphenyl]-4-ylmethyl)piperidin-3-yl)oxy)-5-cyclopropyl-2-fluoro-N-(methylsulfonyl)benzamide, trifluoroacetic acid salt]", "values": [
      {"measurement": "IC50", "result": 3.1, "unit": "nM"}
    ]},
    {"smiles": "CS(=O)(=O)NC(=O)c1cc(C2CC2)c(O[C@@H]2CCCN(Cc3cc(Cl)ccc3O)C2)cc1F", "note": "[Example 427, (R)-4-((1-(5-chloro-2-hydroxybenzyl)piperidin-3-yl)oxy)-5-cyclopropyl-2-fluoro-N-(methylsulfonyl)benzamide, trifluoroacetic acid salt]", "values": [
      {"measurement": "IC50", "result": 19, "unit": "nM"}
    ]},
    {"smiles": "CCOc1ccc(CN2CCC[C@@H](Oc3cc(F)c(C(=O)NS(C)(=O)=O)cc3C3CC3)C2)c(OCC)c1", "note": "[Example 428, (R)-5-cyclopropyl-4-((1-(2,4-diethoxybenzyl)piperidin-3-yl)oxy)-2-fluoro-N-(methylsulfonyl)benzamide, trifluoroacetic acid salt]", "values": [
      {"measurement": "IC50", "result": 23.4, "unit": "nM"}
    ]},
    {"smiles": "CS(=O)(=O)NC(=O)c1cc(C2CC2)c(O[C@@H]2CCCN(Cc3ccc4c(c3)OCCO4)C2)cc1F", "note": "[Example 429, (R)-5-cyclopropyl-4-((1-((2,3-dihydrobenzo[b][1,4]dioxin-6-yl)methyl)piperidin-3-yl)oxy)-2-fluoro-N-(methylsulfonyl)benzamide, trifluoroacetic acid salt]", "values": [
      {"measurement": "IC50", "result": 51.9, "unit": "nM"}
    ]},
    {"smiles": "COc1ccc(CN2CCC[C@@H](Oc3cc(F)c(C(=O)NS(C)(=O)=O)cc3C3CC3)C2)cc1OC", "note": "[Example 430, (R)-5-cyclopropyl-4-((1-(3,4-dimethoxybenzyl)piperidin-3-yl)oxy)-2-fluoro-N-(methylsulfonyl)benzamide, trifluoroacetic acid salt]", "values": [
      {"measurement": "IC50", "result": 533, "unit": "nM"}
    ]},
    {"smiles": "Cc1cc(F)ccc1CN1CCC[C@@H](Oc2cc(F)c(C(=O)NS(C)(=O)=O)cc2C2CC2)C1", "note": "[Example 431, (R)-5-cyclopropyl-2-fluoro-4-((1-(4-fluoro-2-methylbenzyl)piperidin-3-yl)oxy)-N-(methylsulfonyl)benzamide, trifluoroacetic acid salt]", "values": [
      {"measurement": "IC50", "result": 3.2, "unit": "nM"}
    ]},
    {"smiles": "COc1ccc(CN2CCC[C@@H](Oc3cc(F)c(C(=O)NS(C)(=O)=O)cc3C3CC3)C2)c(Cl)c1", "note": "[Example 432, (R)-4-((1-(2-chloro-4-methoxybenzyl)piperidin-3-yl)oxy)-5-cyclopropyl-2-fluoro-N-(methylsulfonyl)benzamide, trifluoroacetic acid salt]", "values": [
      {"measurement": "IC50", "result": 3.3, "unit": "nM"}
    ]},
    {"smiles": "CS(=O)(=O)NC(=O)c1cc(C2CC2)c(O[C@@H]2CCCN(Cc3ccc(C(F)(F)F)c(Cl)c3)C2)cc1F", "note": "[Example 433, (R)-4-((1-(3-chloro-4-(trifluoromethyl)benzyl)piperidin-3-yl)oxy)-5-cyclopropyl-2-fluoro-N-(methylsulfonyl)benzamide, trifluoroacetic acid salt]", "values": [
      {"measurement": "IC50", "result": 6.2, "unit": "nM"}
    ]},
    {"smiles": "Cc1ccc(CN2CCC[C@@H](Oc3cc(F)c(C(=O)NS(C)(=O)=O)cc3C3CC3)C2)cc1Cl", "note": "[Example 435, (R)-4-((1-(3-Chloro-4-methylbenzyl)piperidin-3-yl)oxy)-5-cyclopropyl-2-fluoro-N-(methylsulfonyl)benzamide, trifluoroacetic acid salt]", "values": [
      {"measurement": "IC50", "result": 5.4, "unit": "nM"}
    ]},
    {"smiles": "Cc1cc(C)cc(CN2CCC[C@@H](Oc3cc(F)c(C(=O)NS(C)(=O)=O)cc3C3CC3)C2)c1", "note": "[Example 436, (R)-5-cyclopropyl-4-((1-(3,5-dimethylbenzyl)piperidin-3-yl)oxy)-2-fluoro-N-(methylsulfonyl)benzamide, trifluoroacetic acid salt]", "values": [
      {"measurement": "IC50", "result": 5.4, "unit": "nM"}
    ]},
    {"smiles": "CS(=O)(=O)NC(=O)c1cc(C2CC2)c(O[C@@H]2CCCN(Cc3cccc(OC(F)(F)F)c3)C2)cc1F", "note": "[Example 437, (R)-5-cyclopropyl-2-fluoro-N-(methylsulfonyl)-4-((1-(3-(trifluoromethoxy)benzyl)piperidin-3-yl)oxy)benzamide, trifluoroacetic acid salt]", "values": [
      {"measurement": "IC50", "result": 7.3, "unit": "nM"}
    ]},
    {"smiles": "COc1cc(OC(F)(F)F)ccc1CN1CCC[C@@H](Oc2cc(F)c(C(=O)NS(C)(=O)=O)cc2C2CC2)C1", "note": "[Example 438, (R)-5-cyclopropyl-2-fluoro-4-((1-(2-methoxy-4-(trifluoromethoxy)benzyl)piperidin-3-yl)oxy)-N-(methylsulfonyl)benzamide, trifluoroacetic acid salt]", "values": [
      {"measurement": "IC50", "result": 9.5, "unit": "nM"}
    ]},
    {"smiles": "Cc1ccc(CN2CCC[C@@H](Oc3cc(F)c(C(=O)NS(C)(=O)=O)cc3C3CC3)C2)cc1C", "note": "[Example 439, (R)-5-cyclopropyl-4-((1-(3,4-dimethylbenzyl)piperidin-3-yl)oxy)-2-fluoro-N-(methylsulfonyl)benzamide, trifluoracetic acid salt]", "values": [
      {"measurement": "IC50", "result": 11, "unit": "nM"}
    ]},
    {"smiles": "CS(=O)(=O)NC(=O)c1cc(C2CC2)c(O[C@@H]2CCCN(Cc3cc(Cl)cc(Cl)c3)C2)cc1F", "note": "[Example 440]", "values": [
      {"measurement": "IC50", "result": 0.3, "unit": "nM"}
    ]},
    {"smiles": "CS(=O)(=O)NC(=O)c1cc(C2CC2)c(O[C@@H]2CCCN(Cc3ccc(S(C)(=O)=O)cc3Cl)C2)cc1F", "note": "[Example 441, (R)-4-((1-(2-chloro-4-(methylsulfonyl)benzyl)piperidin-3-yl)oxy)-5-cyclopropyl-2-fluoro-N-(methylsulfonyl)benzamide, trifluoroacetic acid salt]", "values": [
      {"measurement": "IC50", "result": 138, "unit": "nM"}
    ]},
    {"smiles": "CS(=O)(=O)NC(=O)c1cc(C2CC2)c(O[C@@H]2CCCN(Cc3ccccc3-c3ccccc3)C2)cc1F", "note": "[Example 442, (R)-4-((1-([1,1′-biphenyl]-2-ylmethyl)piperidin-3-yl)oxy)-5-cyclopropyl-2-fluoro-N-(methylsulfonyl)benzamide, trifluoroacetic acid salt]", "values": [
      {"measurement": "IC50", "result": 3.1, "unit": "nM"}
    ]},
    {"smiles": "CS(=O)(=O)NC(=O)c1cc(C2CC2)c(O[C@@H]2CCCN(Cc3cccc(-c4ccccc4)c3)C2)cc1F", "note": "[Example 443, (R)-4-((1-([1,1′-biphenyl]-3-ylmethyl)piperidin-3-yl)oxy)-5-cyclopropyl-2-fluoro-N-(methylsulfonyl)benzamide, trifluoroacetic acid salt]", "values": [
      {"measurement": "IC50", "result": 3.4, "unit": "nM"}
    ]},
    {"smiles": "CS(=O)(=O)NC(=O)c1cc(C2CC2)c(O[C@@H]2CCCN(CC3CCC4(CCC4)CC3)C2)cc1F", "note": "[Example 444, (R)-5-cyclopropyl-2-fluoro-N-(methylsulfonyl)-4-((11-(spiro[3.5]nonan-7-ylmethyl)piperidin-3-yl)oxy)benzamide, trifluoroacetic acid salt]", "values": [
      {"measurement": "IC50", "result": 4.5, "unit": "nM"}
    ]},
    {"smiles": "CS(=O)(=O)NC(=O)c1cc(C2CC2)c(O[C@H]2CN(Cc3ccc(F)cc3Cl)CC(F)(F)C2)cc1F", "note": "[Example 445, (R)-4-((1-(2-chloro-4-fluorobenzyl)-5,5-difluoropiperidin-3-yl)oxy)-5-cyclopropyl-2-fluoro-N-(methylsulfonyl)benzamide]", "values": [
      {"measurement": "IC50", "result": 6.1, "unit": "nM"}
    ]},
    {"smiles": "COC[C@@H](c1cc(Cl)cc(Cl)c1)N1CCC[C@@H](Oc2cc(F)c(C(=O)NS(C)(=O)=O)cc2C2CC2)C1", "note": "[Example 447, 5-cyclopropyl-4-(((R)-1-((R)-1-(3,5-dichlorophenyl)-2-methoxyethyl)piperidin-3-yl)oxy)-2-fluoro-N-(methylsulfonyl)benzamide]", "values": [
      {"measurement": "IC50", "result": 6, "unit": "nM"}
    ]},
    {"smiles": "COC[C@H](c1cc(Cl)cc(Cl)c1)N1CCC[C@@H](Oc2cc(F)c(C(=O)NS(C)(=O)=O)cc2C2CC2)C1", "note": "[Example 448, 5-cyclopropyl-4-(((R)-1-((S)-1-(3,5-dichlorophenyl)-2-methoxyethyl)piperidin-3-yl)oxy)-2-4-N-(methylsulfonyl)benzamide, trifluoroacetic acid salt]", "values": [
      {"measurement": "IC50", "result": 10.5, "unit": "nM"}
    ]},
    {"smiles": "CS(=O)(=O)NC(=O)c1cc(C2CC2)c(OCC2CC3CCC(C2)N3Cc2cc(Cl)cc(Cl)c2)cc1F", "note": "[Example 449, 5-cyclopropyl-4-(((1R,3R,5S)-8-(3,5-dichlorobenzyl)-8-azabicyclo[3.2.1]octan-3-yl)methoxy)-2-fluoro-N-(methylsulfonyl)benzamide]", "values": [
      {"measurement": "IC50", "result": 17.1, "unit": "nM"}
    ]},
    {"smiles": "C[C@@H](c1ccc(F)cc1Cl)N1C[C@H]2C[C@@H]1[C@H](Oc1cc(F)c(C(=O)NS(C)(=O)=O)cc1C1CC1)C2", "note": "[Example 450, 4-(((1R,4S,6R)-2-((S)-1-(2-chloro-4-fluorophenyl)ethyl)-2-azabicyclo[2.2.1]heptan-6-yl)oxy)-5-cyclopropyl-2-fluoro-N-(methylsulfonyl)benzamide, trifluoroacetic acid salt]", "values": [
      {"measurement": "IC50", "result": 9.9, "unit": "nM"}
    ]},
    {"smiles": "C[C@H](c1ccc(F)cc1Cl)N1C[C@H]2C[C@@H]1[C@H](Oc1cc(F)c(C(=O)NS(C)(=O)=O)cc1C1CC1)C2", "note": "[Example 451, 4-(((1R,4s,6R)-2-((R)-1-(2-chloro-4-fluorophenyl)ethyl)-2-azabicyclo[2.2.1]heptan-6-yl)oxy)-5-cyclopropyl-2-fluoro-N-(methylsulfonyl)benzamide, trifluoroacetic acid salt]", "values": [
      {"measurement": "IC50", "result": 25.7, "unit": "nM"}
    ]},
    {"smiles": "C[C@H](c1ccc(F)cc1Cl)N1C[C@H](Oc2cc(F)c(C(=O)NS(C)(=O)=O)cc2C2CC2)CC(C)(C)C1", "note": "[Example 452, 4-(((R)-1-((R)-1-(2-chloro-4-fluorophenyl)ethyl)-5,5-dimethylpiperidin-3-yl)oxy)-5-cyclopropyl-2-fluoro-N-(methylsulfonyl)benzamide, trifluoroacetic acid salt]", "values": [
      {"measurement": "IC50", "result": 43.2, "unit": "nM"}
    ]},
    {"smiles": "CS(=O)(=O)NC(=O)c1cc(C2CC2)c(OCC2CCN(Cc3cc(F)c(Cl)cc3Cl)CC2)cc1F", "note": "[Example 453, 5-cyclopropyl-4-((1-(2,4-dichloro-5-fluorobenzyl)piperidin-4-yl)methoxy)-2-fluoro-N-(methylsulfonyl)benzamide, trifluoroacetic acid salt]", "values": [
      {"measurement": "IC50", "result": 3, "unit": "nM"}
    ]},
    {"smiles": "CS(=O)(=O)NC(=O)c1cc(C2CC2)c(OCC2CCN(Cc3cc(Cl)c(F)c(Cl)c3)CC2)cc1F", "note": "[Example 454, 5-cyclopropyl-4-((1-(3,5-dichloro-4-fluorobenzyl)piperidin-4-yl)methoxy)-2-fluoro-N-(methylsulfonyl)benzamide, trifluoroacetic acid salt]", "values": [
      {"measurement": "IC50", "result": 5, "unit": "nM"}
    ]},
    {"smiles": "CS(=O)(=O)NC(=O)c1cc(C2CC2)c(OCC2CCN(Cc3cc(Cl)c(F)cc3F)CC2)cc1F", "note": "[Example 455, trifluoroacetic acid salt]", "values": [
      {"measurement": "IC50", "result": 8.5, "unit": "nM"}
    ]},
    {"smiles": "CS(=O)(=O)NC(=O)c1cc(C2CC2)c(OCC2CCN(Cc3cc(F)c(F)c(Cl)c3)CC2)cc1F", "note": "[Example 456, 4-((1-(3-chloro-4,5-difluorobenzyl)piperidin-4-yl)methoxy)-5-cyclopropyl-2-fluoro-N-(methylsulfonyl)benzamide, trifluoroacetic acid salt]", "values": [
      {"measurement": "IC50", "result": 9.3, "unit": "nM"}
    ]}
  ]
}
